Laboratory results published in BindingDB's records for doi:10.1021/jm070299x (Bristol Myers Squibb, 2007).

Target: Inosine-5'-monophosphate dehydrogenase 2 (Homo sapiens, UniProt P12268)
Assay: IMPDH2 Enzyme Inhibition and Human T-Lymphoblast (CEM) Proliferation Inhibition Assays
Settings: pH 8; 25 °C
Experimental: Inhibition assays were performed using recombinant human IMPDH type 2 and varying concentrations of inhibitor. The production of NADH was monitored by following changes in absorbance at 340 nm. […] The in vivo activities of compounds were also evaluated the inhibition of T-cell proliferation in CEM lymphoblast cells. The EC50/IC50 values were calculated using a four-parameter logistic plot.

Row | SMILES | IC50 [nM]
1 | CC(C)(NC(=O)c1cc2[nH]c3ccccc3c(=O)c2cc1F)c1ccc(S(C)(=O)=O)cc1 [2-fluoro-N-[2-(4-methanesulfonylphenyl)propan-2-yl]-9-oxo-9,10-dihydroacridine-3-carboxamide] | 480
2 | CCOC(=O)c1ccc2c(=O)c3ccccc3[nH]c2c1 [ethyl 9-oxo-9,10-dihydroacridine-3-carboxylate] | > 10000
3 | CN(C)S(=O)(=O)c1cccc(C(C)(C)NC(=O)c2cc3[nH]c4ccccc4c(=O)c3cc2F)c1 [N-{2-[3-(dimethylsulfamoyl)phenyl]propan-2-yl}-2-fluoro-9-oxo-9,10-dihydroacridine-3-carboxamide] | 380
4 | CCN1CCN(c2ccc(C(C)(C)NC(=O)c3cc4[nH]c5ccccc5c(=O)c4cc3F)cn2)CC1 [Acridone-Based Inhibitor, 4m] | 770
5 | CN(C)CCOc1ccc(C(C)(C)NC(=O)c2cc3[nH]c4ccccc4c(=O)c3cc2F)cc1 [N-(2-{4-[2-(dimethylamino)ethoxy]phenyl}propan-2-yl)-2-fluoro-9-oxo-9,10-dihydroacridine-3-carboxamide] | 560
6 | Cc1ccc(C(C)(C)NC(=O)c2cc3[nH]c4ccccc4c(=O)c3cc2F)cn1 [2-fluoro-N-[2-(6-methylpyridin-3-yl)propan-2-yl]-9-oxo-9,10-dihydroacridine-3-carboxamide] | 750
7 | CC(C)(NC(=O)c1ccc2c(=O)c3ccccc3[nH]c2c1)c1ccccc1 [9-oxo-N-(2-phenylpropan-2-yl)-9,10-dihydroacridine-3-carboxamide] | 2100
8 | CN(C)S(=O)(=O)c1ccc(C(C)(C)NC(=O)c2cc3[nH]c4ccccc4c(=O)c3cc2F)cc1 [N-{2-[4-(dimethylsulfamoyl)phenyl]propan-2-yl}-2-fluoro-9-oxo-9,10-dihydroacridine-3-carboxamide] | 660
9 | CC(C)(NC(=O)c1ccc2c(=O)c3ccccc3[nH]c2c1)c1cccnc1 [9-oxo-N-[2-(pyridin-3-yl)propan-2-yl]-9,10-dihydroacridine-3-carboxamide] | 2200
10 | CC(C)(NC(=O)c1cc2[nH]c3ccccc3c(=O)c2cc1F)c1ccccn1 [2-fluoro-9-oxo-N-[2-(pyridin-2-yl)propan-2-yl]-9,10-dihydroacridine-3-carboxamide] | 1000
11 | CN(C)c1cc(C(C)(C)NC(=O)c2cc3[nH]c4ccccc4c(=O)c3cc2F)ccn1 [N-{2-[2-(dimethylamino)pyridin-4-yl]propan-2-yl}-2-fluoro-9-oxo-9,10-dihydroacridine-3-carboxamide] | 640
12 | Cc1cc(C(C)(C)NC(=O)c2cc3[nH]c4ccccc4c(=O)c3cc2F)cnc1N1CCOCC1 [2-fluoro-N-{2-[5-methyl-6-(morpholin-4-yl)pyridin-3-yl]propan-2-yl}-9-oxo-9,10-dihydroacridine-3-carboxamide] | 870
13 | CC(C)(NC(=O)c1cc2[nH]c3ccccc3c(=O)c2cc1F)c1ccc(N2CCOCC2)nc1 [2-fluoro-N-{2-[6-(morpholin-4-yl)pyridin-3-yl]propan-2-yl}-9-oxo-9,10-dihydroacridine-3-carboxamide] | 660
14 | CC(C)(NC(=O)c1cc2[nH]c3ccccc3c(=O)c2cc1F)c1cnc2c(c1)OCCN2 [2-fluoro-9-oxo-N-(2-{2H,3H,4H-pyrido[3,2-b][1,4]oxazin-7-yl}propan-2-yl)-9,10-dihydroacridine-3-carboxamide] | 920
15 | CC(C)(NC(=O)c1cc2[nH]c3ccccc3c(=O)c2cc1F)c1ccccc1 [2-fluoro-9-oxo-N-(2-phenylpropan-2-yl)-9,10-dihydroacridine-3-carboxamide] | 830
16 | CC(C)(NC(=O)c1ccc2c(=O)c3ccccc3[nH]c2c1)c1ccccn1 [9-oxo-N-[2-(pyridin-2-yl)propan-2-yl]-9,10-dihydroacridine-3-carboxamide] | 2200
17 | CN(C)c1ccc(C(C)(C)NC(=O)c2cc3[nH]c4ccccc4c(=O)c3cc2F)cn1 [N-{2-[6-(dimethylamino)pyridin-3-yl]propan-2-yl}-2-fluoro-9-oxo-9,10-dihydroacridine-3-carboxamide] | 850
18 | CC(C)(NC(=O)c1cc2[nH]c3ccccc3c(=O)c2cc1F)c1cccc(S(C)(=O)=O)c1 [2-fluoro-N-[2-(3-methanesulfonylphenyl)propan-2-yl]-9-oxo-9,10-dihydroacridine-3-carboxamide] | 580
19 | CC(C)(NC(=O)c1cc2[nH]c3ccccc3c(=O)c2cc1F)c1cccnc1 [2-fluoro-9-oxo-N-[2-(pyridin-3-yl)propan-2-yl]-9,10-dihydroacridine-3-carboxamide] | 420
20 | CC(C)(NC(=O)c1ccc2c(=O)c3ccccc3[nH]c2c1)c1ccncc1 [9-oxo-N-[2-(pyridin-4-yl)propan-2-yl]-9,10-dihydroacridine-3-carboxamide] | 2300
21 | CC(C)(C)NC(=O)c1ccc2c(=O)c3ccccc3[nH]c2c1 [N-tert-butyl-9-oxo-9,10-dihydroacridine-3-carboxamide] | 3300
22 | COc1cc(C(C)(C)NC(=O)c2cc3[nH]c4ccccc4c(=O)c3cc2F)cnc1N1CCOCC1 [2-fluoro-N-{2-[5-methoxy-6-(morpholin-4-yl)pyridin-3-yl]propan-2-yl}-9-oxo-9,10-dihydroacridine-3-carboxamide] | 810

Same assay, conditions: pH 8; 25 °C; read-out: IC50

Row | SMILES | IC50 [nM]
23 | CCOC(=O)c1ccc2c(=O)c3ccccc3[nH]c2c1 [ethyl 9-oxo-9,10-dihydroacridine-3-carboxylate] | 59
